The target of the first assay is T1, recombinant human Icmt (Homo sapiens, UniProt O60725).
T1 construct: recombinant baculovirus containing the entire open reading frame of the human Icmt cDNA; made in house; host or cells: Sf9 insect cells (baculovirus); membrane fraction used
T1 sequence (O60725 whole entry): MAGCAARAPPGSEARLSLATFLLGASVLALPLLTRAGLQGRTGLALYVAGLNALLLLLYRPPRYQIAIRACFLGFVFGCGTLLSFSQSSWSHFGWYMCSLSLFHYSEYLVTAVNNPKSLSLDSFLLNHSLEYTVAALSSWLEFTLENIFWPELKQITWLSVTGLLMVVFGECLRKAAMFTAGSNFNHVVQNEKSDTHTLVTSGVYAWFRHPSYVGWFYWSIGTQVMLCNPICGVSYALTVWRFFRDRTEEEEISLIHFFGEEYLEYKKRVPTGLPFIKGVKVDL
The experiment in a line: Icmt assay: [3H]methyl incorporation from [3H]AdoMet into BFC. It is filed as biochemical.
Details: not given
As a reminder, the IC50 is the concentration needed to halve the response being measured. `CCOc1cccc(-c2ccc3c(c2)c(CC=O)cn3Cc2cccc(C(F)(F)F)c2)c1` [9F10/A119038]: the half-inhibitory concentration (IC50) is 6 µM.

The assay is the same for the next values; noted with them: Table 1, R1 substituent x scaffold matrix; read-out: IC50.
As for `CC(C)Cn1cc(CC(N)=O)c2cc(-c3cccc(F)c3)ccc21` [(a1)/drawing 3], the concentration for half-maximal inhibition (IC50) worked out at 13.7 ± 0.3 µM.

The same assay, now with this note: Table 2, no pre-incubation; read-out: IC50.
Consider `CC(C)(C)c1ccc(Cn2cc(CC=O)c3cc(-c4cc(C(F)(F)F)cc(C(F)(F)F)c4)ccc32)cc1` [9B4/A119024], for which the IC50 was 4 µM.
For the molecule `CCOc1cccc(-c2ccc3c(c2)c(CC=O)cn3Cc2ccc(C(C)(C)C)cc2)c1` [9B6/A119030], the IC50 was 3 µM.
Turning to `O=CCc1cn(Cc2ccccc2)c2ccc(-c3ccc(Oc4ccccc4)cc3)cc12` [9B8/A119007], the IC50 is 7 µM.
In the case of `CC(C)(C)c1ccc(Cn2cc(CC=O)c3cc(-c4cccc(F)c4)ccc32)cc1` [9B12/A119029], the IC50 is 4 µM.
`O=CCc1cn(CCCOc2ccccc2)c2ccc(-c3ccc(Oc4ccccc4)cc3)cc12` [9B20/A119055]: the IC50 came to 14 µM.
The same measure, in the same setting: to `CC(C)Cn1cc(CC=O)c2cc(-c3cc(C(F)(F)F)cc(C(F)(F)F)c3)ccc21` [9B22/A119064] belongs 8 µM; to `O=CCc1cn(CCCOc2ccccc2)c2ccc(-c3cc(C(F)(F)F)cc(C(F)(F)F)c3)cc12` [9D10/A119048], more than 30 µM; to `O=CCc1cn(Cc2cccc(C(F)(F)F)c2)c2ccc(-c3ccc(Oc4ccccc4)cc3)cc12` [9D12/A119039], 7 µM.
With `CCCCCCCCn1cc(CC=O)c2cc(-c3ccc(Oc4ccccc4)cc3)ccc21` [9D18/A119047], the IC50 stood at 5 µM.
As for `CCCCCCn1cc(CC=O)c2cc(-c3ccc(Oc4ccccc4)cc3)ccc21` [9D20/A110023], the IC50 was 20 µM.
For `COc1ccccc1-c1ccc2c(c1)c(CC=O)cn2CC1CC1` [9F8/A119059], the IC50 was more than 30 µM.
In the case of `CCCCCCn1cc(CC=O)c2cc(-c3ccc(F)c(Cl)c3)ccc21` [9F18/A119017], the half-maximal inhibitory concentration (IC50) was 7 µM.
`CCCCCCCCn1cc(CC=O)c2cc(-c3cccc(OCC)c3)ccc21` [9F20/A119046]: the IC50 turned out to be 2 µM.
Consider `Cc1ccc(-c2ccc3c(c2)c(CC=O)cn3Cc2cccc(C(F)(F)F)c2)cc1` [9H4/A119034], for which the IC50 was found to be 7 µM.
As for `O=CCc1cn(Cc2ccccc2)c2ccc(-c3cc(C(F)(F)F)cc(C(F)(F)F)c3)cc12` [9H6/A119000], the half-inhibitory concentration (IC50) is 18 µM.
As to `CCCCCCn1cc(CC=O)c2cc(-c3cccc(OCC)c3)ccc21` [9H10/A119022], the half-inhibitory concentration (IC50) was 7 µM.
Still for that read-out and setting: to `O=CCc1cn(CC2CC2)c2ccc(-c3cc(C(F)(F)F)cc(C(F)(F)F)c3)cc12` [9H12/A119056] belongs 20 µM; to `O=CCc1cn(Cc2cccc(C(F)(F)F)c2)c2ccc(-c3ccc(F)c(Cl)c3)cc12` [9H14/A119033], 6 µM.
Still for that read-out and setting: as for `O=CCc1cn(CC2CC2)c2ccc(-c3ccc(F)c(Cl)c3)cc12` [9J8/A119057], the figure is more than 30 µM; as for `CCCCCCCCn1cc(CC=O)c2cc(-c3ccccc3OC)ccc21` [9J16/A119043], 5 µM; as for `CCCCCCCCn1cc(CC=O)c2cc(-c3cccc(F)c3)ccc21` [9J18/A119045], 3 µM.
Still for that read-out and setting: to `CCCCCCn1cc(CC=O)c2cc(-c3cccc(C)c3)ccc21` [9J22/A119020] belongs 7 µM.
As for `CCCCCCn1cc(CC=O)c2cc(-c3ccc(C)cc3)ccc21` [9L4/A119018], the concentration for half-maximal inhibition (IC50) amounted to 23 µM.
In the case of `CCCCCCCCn1cc(CC=O)c2cc(-c3ccc(C)cc3)ccc21` [9L6/A119042], the half-maximal inhibitory concentration (IC50) was 9 µM.
For `CCCCCCCCn1cc(CC=O)c2cc(-c3ccc(F)c(Cl)c3)ccc21` [9L8/A119041], the IC50 stood at 1 µM.
Same read-out and setting: as for `O=CCc1cn(Cc2cccc(C(F)(F)F)c2)c2ccc(-c3cc(C(F)(F)F)cc(C(F)(F)F)c3)cc12` [9L10/A119032], the figure is more than 30 µM; as for `CCCCCCCCn1cc(CC=O)c2cc(-c3cc(C(F)(F)F)cc(C(F)(F)F)c3)ccc21` [9L22/A119040], more than 30 µM; as for `CC(C)(C)c1ccc(Cn2cc(CC=O)c3cc(-c4ccc(F)c(Cl)c4)ccc32)cc1` [9N6/A119025], 5 µM.
Turning to `Cc1ccc(-c2ccc3c(c2)c(CC=O)cn3CC2CC2)cc1` [9N8/A119058], the concentration for half-maximal inhibition (IC50) is more than 30 µM.
Regarding `O=CCc1cn(Cc2ccccc2)c2ccc(-c3ccc(F)c(Cl)c3)cc12` [9N10/A119001], the 50% inhibitory concentration (IC50) is 9 µM.
Regarding `COc1ccccc1-c1ccc2c(c1)c(CC=O)cn2Cc1ccc2ccccc2c1` [9N12/A119075], the concentration for half-maximal inhibition (IC50) was 18 µM.
Regarding `O=CCc1cn(Cc2ccc3ccccc3c2)c2ccc(-c3ccc(Oc4ccccc4)cc3)cc12` [9N14/A119079], the IC50 is 20 µM.
On the same count and under the same terms, as for `Cc1cccc(-c2ccc3c(c2)c(CC=O)cn3Cc2ccc3ccccc3c2)c1` [9N22/A119076], the figure is 20 µM.

Still in this assay, the particulars now being: Table 2, pre-incubation of enzyme with inhibitor; read-out: IC50 pre-inc.
Take `CCCCCCCCn1cc(CC=O)c2cc(-c3cccc(F)c3)ccc21` [9J18/A119045]: the IC50 is less than 0.3 µM.

Still in this assay, the particulars now being: Table 3, pre-incubation with Icmt for 30 min at 37° C.; read-out: IC50 PI (converted).
Consider `Cc1cccc(-c2ccc3c(c2)c(CC(N)=O)cn3CC(C)C)c1` [(a1)/drawing 2], for which the IC50 is 17.7 µM.
The same measure, in the same setting: as for `Cc1cccc(-c2ccc3c(c2)c(CC(N)=O)cn3CC2CC2)c1` [(b1)/drawing 2], the figure is 9.5 µM; as for `CCCCCCn1cc(CC(N)=O)c2cc(-c3cccc(C)c3)ccc21` [(c1)/drawing 2], 1.7 µM.
`Cc1cccc(-c2ccc3c(c2)c(CC(N)=O)cn3Cc2ccccc2)c1` [(e1)/drawing 2]: the IC50 is 2.4 µM.
The same measure, in the same setting: to `Cc1cccc(-c2ccc3c(c2)c(CC(N)=O)cn3Cc2cccc(C(F)(F)F)c2)c1` [(g1)/drawing 2] belongs 0.71 µM.

The same assay, now with this note: standard in vitro methylation assay; read-out: Km as Icmt substrate.
As a reminder, the Km is the substrate concentration at which the rate is half of its maximum. Turning to “biotin-S-farnesyl-L-cysteine [BFC, reference compound]”, the Michaelis-Menten constant (Km) is 2.1 ± 0.4 µM.

The values are drawn from US7964629B2, “Inhibitors of isoprenylcysteine carboxyl methyltransferase” (Duke Universtiy, priority 2005, dated 2011).
